Measurements reported in US4771060A, “Novel skin-whitening agent” (Teikoku Seiyaku Kabushiki Kaisha, priority 1986, dated 1988).

How the values were obtained:
[1] = tested on: surface melanism in yellow goldfish; assay: Preventive effect on surface melanism in yellow goldfish; format: in vivo, goldfish (Ryukins); conditions: then 0.9% NaCl 12 days, 12th day, 5 fish, control 100%
Method: (§1) Ryukins [a kind of goldfish (weighing 3-5 g, one group: 5 fish)] were fed in water containing 1 μg/l or 10 μg/l of pionine (No. 1 compound in the above Preparations) for 20 days. The goldfish were then transferred into a water bath filled with water containing 0.9% by weight of NaCl in order to induce melanism and fed for 12 days. As a control group, the fish were fed likewise except no active compound was used. The extent of surface melanism and the activity of tyrosinase in the group administered with pionine were compared with those of the control group.

tyrosinase = assay: Determination of tyrosinase activity in scales of treated goldfish; format: in vivo, goldfish (Ryukins); conditions: scales on 12th day, control 0.06
Method: as §1
As samples to be tested, scales were picked from goldfish of each of groups on 12th day. The samples were each homogenized with 1M phosphate buffer (pH 6.8) and centrifuged. As to the supernatant, tyrosinase was determined by a colorimetry according to the procedure of N. H. Horowitz and Pomerantz (cf. Method in Enzymology, XVIIA, 615-626).

[2] = tested on: surface melanism in yellow goldfish; assay: Therapeutic effect on surface melanism in yellow goldfish; format: in vivo, goldfish (Ryukins); conditions: for goldfish returned to their original yellow surface color: after 12 weeks, control 0%
Method: Ryukins (weighing 3-5 g) were fed in a 0.9% NaCl aqueous solution for 12 days to induce surface melanism. The goldfish were grouped into five fish each. In two experiment groups, the fish were fed in a water bath for 12 weeks, during which pionine was add in an amount of 1 μg/l and 10 μg/l, respectively, three times per week. In the control group, the fish were fed in pure water. The recovery from surface melanism of the experiment groups was compared with that of control group.

Black popeyed goldfish = assay: Action in normal black-goldfish; format: in vivo; conditions: 10 μg/l three times per week, after 12 weeks
Method: Black popeyed goldfish (each group: 5 fish) were fed in a water bath. In experimental group, pionine was added to the water bath in a concentration of 10 μg/l, three times per week. In the control group, no pionine was added.

[3] = tested on: tyrosinase derived from mushroom; assay: Direct effect on tyrosinase activity (L-DOPA substrate); format: biochemical
Method: The direct effect of pionine to tyrosinase activity was studied. 0.1 ml of a solution of pionine having various concentrations was mixed with 0.1 ml of 290 unit/ml solution of tyrosinase derived from mushroom (Sigma). […]

yellow goldfish = assay: Toxicity in yellow goldfish; format: in vivo; conditions: 5 mg/l in water for three days, ten yellow goldfish
[4] = Acute toxicity, oral, rats; conditions: rat, in vivo, suspension in 0.5% sodium carboxymethylcellulose, 7 days
Method: A suspension of pionine in a 0.5% sodium carboxymethylcellulose solution was orally administered to Wistar rats (weighing about 130 g, one group: ten animal) with a stomach sonde. The number of dead rats were counted for 7 days, and LD50 (g/kg) was calculated by van der Werden's method. […] Thus, it is clear that pionine is a compound having an extremely wide safety range, taking into account the above experimental results that it is effective in a concentration of 10 μg/l for preventing and treating melanism of goldfish.

[5] = tested on: stains (chloasma) and pigmentations induced by inflammation; assay: Clinical test, oral pionine; format: in vivo, human; parameters: key to Findings on skin: -1: deepened; 0: not changed; +1: faded; +2: completely disappeared
Method: A hundred μg of pionine was orally administered to each of three patients having stains (chloasma) and each of three patients having pigmentations induced by inflammation, once a day when the patients were hungry. This test was continued for 6 months. The effect of pionine was evaluated and classified into four classes by the degree of color as follows:
-1: deepened, 0: not changed, +1: faded,
+2: completely disappeared.
Evaluation by the patients themselves is also mentioned therein. Meanwhile, a patch test as to known cosmetics which were used by the patients was made for all patients before the clinical test, and if the result was positive (i.e. the known cosmetics are […]), the use of the cosmetics was prohibited.

## CCCCCCCN1C(C)=CSC1=Cc1scc(C)[n+]1CCCCCCC [pionine, 4,4'-dimethyl-3,3'-di-n-heptyl-2,2'-monomethinethiazolocyanine iodide]
[1]; 1 μg/l in water for 20 days
  fish with surface melanism observed: 40%
[1]; 10 μg/l in water for 20 days
  fish with surface melanism observed: none
tyrosinase; 1 μg/l group
  tyrosinase activity, ΔOD at 475 nm/mg protein/30 min: 0.05 /mg protein/30 min
tyrosinase; 10 μg/l group
  tyrosinase activity, ΔOD at 475 nm/mg protein/30 min: 0.02 /mg protein/30 min
[2]; 1 μg/l three times per week
  goldfish returned to their original yellow surface color: 40%
[2]; 10 μg/l three times per week
  goldfish returned to their original yellow surface color: 80%
[2]; 1 and 10 μg/l groups, within three weeks
  recovery from surface melanism: not observed
Black popeyed goldfish
  blackness of normal black goldfish versus control: no differences were observed
[3]; addition of 5×10^-2 to 10^-5 % of pionine
  effect on tyrosinase activity: did not affect
[3]; direct effect, summary statement
  tyrosinase inhibitory activity: no tyrosinase inhibitory activity
[3]; pionine 5 × 10^-2 %, 2 min., control 0.250
  ΔOD (at 475 nm): 0.248
[3]; pionine 5 × 10^-2 %, 5 min., control 0.540
  ΔOD (at 475 nm): 0.540
[3]; pionine 5 × 10^-2 %, 10 min., control 0.782
  ΔOD (at 475 nm): 0.786
[3]; pionine 5 × 10^-3 %, 2 min., control 0.250
  ΔOD (at 475 nm): 0.252
[3]; pionine 5 × 10^-3 %, 5 min., control 0.540
  ΔOD (at 475 nm): 0.544
[3]; pionine 5 × 10^-3 %, 10 min., control 0.782
  ΔOD (at 475 nm): 0.780
[3]; pionine 5 × 10^-4 %, 2 min., control 0.250
  ΔOD (at 475 nm): 0.252
[3]; pionine 5 × 10^-4 %, 5 min., control 0.540
  ΔOD (at 475 nm): 0.540
[3]; pionine 5 × 10^-4 %, 10 min., control 0.782
  ΔOD (at 475 nm): 0.784
[3]; pionine 5 × 10^-5 %, 2 min., control 0.250
  ΔOD (at 475 nm): 0.250
[3]; pionine 5 × 10^-5 %, 5 min., control 0.540
  ΔOD (at 475 nm): 0.538
[3]; pionine 5 × 10^-5 %, 10 min., control 0.782
  ΔOD (at 475 nm): 0.780
Yellow goldfish
  abnormality: no abnormality was observed
  death of fish: no fish was died
[4]; female Wistar rats
  LD50 at 168 h: 500 mg/kg
[4]; male Wistar rats
  LD50 at 168 h: 470 mg/kg
[5]; 5/6 patients, 100 μg orally once a day, 6 months
  patients with positive effect: 83%
[5]; Run No. 1, 100 μg orally once a day
  Side effect: No
[5]; Run No. 1, Chloasma
  Evaluation by patients: effective
[5]; Run No. 1, Chloasma, 100 μg orally once a day, at 4th month
  Findings on skin: +2
[5]; Run No. 2, Chloasma
  Evaluation by patients: not effective
[5]; Run No. 2, Chloasma, 100 μg orally once a day, at 6th month
  Findings on skin: 0
[5]; Run No. 3, Chloasma
  Evaluation by patients: effective
[5]; Run No. 3, Chloasma, 100 μg orally once a day, at 5th month
  Findings on skin: +2
[5]; Run No. 4, Pigmentation after inflammation, 100 μg orally once a day, at 3rd month
  Findings on skin: +2
[5]; Run No. 5, Pigmentation after inflammation, 100 μg orally once a day, at 5th month
  Findings on skin: +2
[5]; Run No. 6, Pigmentation after inflammation, 100 μg orally once a day, at 3rd month
  Findings on skin: +1
[5]; six patients, 100 μg orally once a day, 6 months
  side effect in all patients: no side effect was observed
